Measurements from ChEMBL document CHEMBL3774380, “Development of Noviomimetics as C-Terminal Hsp90 Inhibitors” (ACS Med Chem Lett, 2016).
Activity calls are given as the source filed them. The calls are words filed in the database; no cut-off is given here.

Assays:
Rattus norvegicus [1] = species on record: Rattus norvegicus; experiment: Inhibition of Hsp90 in rat 50B11 cells expressing human HSPA1A gene assessed as increase in Hsp70 level at 10 to 1000 nM after 16 hrs by luciferase reporter assay; assay type: cell-based
Rattus norvegicus [2] = species on record: Rattus norvegicus; experiment: Inhibition of Hsp90 in rat 50B11 cells assessed as increase in Hsp70 level at 0.5 to 1000 nM after 24 hrs by Western blot method; assay type: cell-based

How did the inhibition (Rattus norvegicus [1]) turn out when CC(=O)NCCc1ccc(O[C@@H]2CC[C@@H](OCc3ccccc3)C2)cc1-c1cccc(F)c1 was run?
The inhibition was “inactive”.

How did the inhibition (Rattus norvegicus [1]) turn out when CC(=O)NCCc1ccc(O[C@H]2CC[C@@H](OCc3ccccc3)C2)cc1-c1cccc(F)c1 was run?
Its inhibition is “inactive”.

For CO[C@@H]1[C@@H](O)[C@@H](O)[C@H](Oc2ccc(CCNC(C)=O)c(-c3cccc(F)c3)c2)OC1(C)C, which inhibition (Rattus norvegicus [2]) is on record?
The inhibition was “Active”.

Which inhibition (Rattus norvegicus [1]) does the source give for CC(=O)NCCc1ccc(OC2CCC(O)CC2)cc1-c1cccc(F)c1 (mixture of isomers) here?
The inhibition was “Active”.

What does the source list for CC(=O)NCCc1ccc(OC2CCC(OCc3ccccc3)CC2)cc1-c1cccc(F)c1 (mixture of isomers)?
inhibition (Rattus norvegicus [2]): Active; inhibition (Rattus norvegicus [1]): Active

With CC(=O)NCCc1ccc(OC2CCCC(O)C2)cc1-c1cccc(F)c1 (mixture of isomers) as the molecule, how does the inhibition (Rattus norvegicus [1]) read?
Its inhibition is “Active”.

For CC(=O)NCCc1ccc(OC2CCCC(OCc3ccccc3)C2)cc1-c1cccc(F)c1 (mixture of isomers), which inhibition (Rattus norvegicus [1]) is on record?
The inhibition was “Active”.

For CC(=O)NCCc1ccc(OC2C[C@H](O)CO2)cc1-c1cccc(F)c1 (mixture of isomers), which inhibition (Rattus norvegicus [1]) is on record?
The inhibition was “inactive”.

For CC(=O)NCCc1ccc(OC2OCCC2O)cc1-c1cccc(F)c1 (mixture of isomers), which inhibition (Rattus norvegicus [1]) is on record?
Its inhibition is “inactive”.

Which inhibition (Rattus norvegicus [1]) does the source give for CC(=O)NCCc1ccc(OC2OC[C@@H](O)[C@H]2O)cc1-c1cccc(F)c1 (mixture of isomers) here?
Its inhibition is “inactive”.

CC(=O)NCCc1ccc(OC2C=CCC(C)(C)C2)cc1-c1cccc(F)c1 (racemic) was tested. Which inhibition (Rattus norvegicus [1]) did it give?
The inhibition was “inactive”.

CC(=O)NCCc1ccc(OC2C=CCCC2)cc1-c1cccc(F)c1 (racemic) was tested. Which inhibition (Rattus norvegicus [1]) did it give?
The inhibition was “inactive”.
